# Data: patent US20100099694A1, “2-ANILINO-4-HETEROARYL PYRIMIDINE DERIVATIVES, AND PREPARATION THEREOF AS MEDICAMENTS, PHARMACEUTICAL COMPOSITIONS, AND IN PARTICULAR IKK INHIBITORS” (SANOFI-AVENTIS, priority 2007, published 2010)
row,melting point [°C],Compound
1,269.5,"O=S(=O)(c1ccc(Nc2nccc(N3CCc4cc(F)ccc43)n2)cc1)N(CCN1CCCC1)C1CCNCC1 [Example 1, 4-[4-(5-Fluoro-2,3-dihydroindol-1-yl)pyrimidin-2-ylamino]-N-piperidin-4-yl-N-(2-pyrrolidin-1-yl-ethyl)benzenesulphonamide]"
2,147,"O=S(=O)(c1ccc(Nc2nccc(N3CCc4cc(F)ccc43)n2)cc1)N(CCN1CCCC1)C1CCN(CCC(F)(F)F)CC1 [Example 6, 4-[4-(5-Fluoro-2,3-dihydroindol-1-yl)-pyrimidin-2-ylamino]-N-(2-pyrrolidin-1-ylethyl)-N-[1-(3,3,3-trifluoropropyl)piperidin-4-yl]benzenesulphonamide]"
3,198,"O=S(=O)(c1ccc(Nc2nccc(N3CCc4cc(F)ccc43)n2)cc1)N(CCN1CCCC1)C1CCN(CCCC(F)(F)F)CC1 [Example 3, 4-[4-(5-Fluoro-2,3-dihydroindol-1-yl)-pyrimidin-2-ylamino]-N-(2-pyrrolidin-1-ylethyl)-N-[1-(4,4,4-trifluorobutyl)piperidin-4-yl]benzenesulphonamide]"
4,140,"O=S(=O)(c1ccc(Nc2nccc(N3CCc4cc(F)ccc43)n2)cc1)N(CCN1CCCC1)C1CCN(Cc2ccsc2)CC1 [Example 4, 4-[4-(5-Fluoro-2,3-dihydroindol-1-yl)pyrimidin-2-ylamino]-N-(2-pyrrolidin-1-ylethyl)-N-(1-thiophen-3-ylmethylpiperidin-4-yl)benzenesulphonamide]"
5,215.4,"O=S(=O)(c1ccc(Nc2nccc(N3CCc4cc(F)ccc43)n2)cc1)N(CCN1CCCC1)C1CCN(C2CC2)CC1 [Example 2, N-(1-Cyclopropylpiperidin-4-yl)-4-[4-(5-fluoro-2,3-dihydroindol-1-yl)pyrimidin-2-ylamino]-N-(2-pyrrolidin-1-ylethyl)benzenesulphonamide]"
6,100,"O=S(=O)(c1ccc(Nc2nccc(N3CCc4cc(F)ccc43)n2)cc1)N(CCN1CCCC1)C1CCOCC1 [Example 8, 4-[4-(5-Fluoro-2,3-dihydroindol-1-yl)pyrimidin-2-ylamino]-N-(2-pyrrolidin-1-ylethyl)-N-(tetrahydropyran-4-yl)benzenesulphonamide]"
7,139.3,"O=S(=O)(c1ccc(Nc2nccc(N3CCc4cc(F)ccc43)n2)cc1)N(CCN1CCCC1)C1CCN(CC(F)(F)F)CC1 [Example 7, 4-[4-(5-Fluoro-2,3-dihydroindol-1-yl)-pyrimidin-2-ylamino]-N-(2-pyrrolidin-1-ylethyl)-N-[1-(2,2,2-trifluoroethyl)piperidin-4-yl]benzenesulphonamide]"
8,94,"Cn1cccc1CN1CCC(N(CCN2CCCC2)S(=O)(=O)c2ccc(Nc3nccc(N4CCc5cc(F)ccc54)n3)cc2)CC1 [Example 5, 4-[4-(5-Fluoro-2,3-dihydroindol-1-yl)-pyrimidin-2-ylamino]-N-[1-(1-methyl-1H-pyrrol-2-ylmethyl)piperidin-4-yl]-N-(2-pyrrolidin-1-ylethyl)benzenesulphonamide]"
